Experimental data: ChEMBL document CHEMBL3045223, “Synthesis, nematicidal and antimicrobial properties of Bis-[4-methoxy-3-[3-(4-fluorophenyl)-6-(4-methylphenyl)-2(aryl)-tetrahydro-2H-pyrazolo[3,4-d]thiazol-5-yl]phenyl]methanes” (2009)
Values after ≈ are worked out from the molar mass of the structure shown. Active and inactive are the calls of the source. The calls are words filed in the database; no cut-off is given here.

What was measured:
Assay type in all cases: functional
[1] = tested on: Trichophyton mentagrophytes; experiment: Antifungal activity against Trichophyton mentagrophytes IFO 40996 assessed as growth inhibition at 37 degC for 48 hr
Trichophyton rubrum [2] = experiment: Antifungal activity against Trichophyton rubrum IFO 9185 assessed as growth inhibition at 37 degC for 48 hr
Aspergillus fumigatus [3] = experiment: Antifungal activity against Aspergillus fumigatus HIC 6094 assessed as growth inhibition at 37 degC for 48 hr; details: HIC 6094, 48 h
Candida albicans [4] = experiment: Antifungal activity against Candida albicans ATCC 10231 assessed as growth inhibition at 37 degC for 48 hr; details: ATCC 10231, 48 h
[5] = tested on: Trichophyton mentagrophytes; experiment: Antifungal activity against Trichophyton mentagrophytes IFO 40996 assessed as growth inhibition at 300 ug/disc at 37 degC for 48 hr; details: for zone of inhibition at 300 µg/disc: IFO 40996, 48 h, read-out: IZ
Trichophyton rubrum [6] = experiment: Antifungal activity against Trichophyton rubrum IFO 9185 assessed as growth inhibition at 300 ug/disk at 37 degC for 48 hr; details: for zone of inhibition at 300 µg/disc: IFO 9185, 48 h, read-out: IZ
Aspergillus fumigatus [7] = experiment: Antifungal activity against Aspergillus fumigatus HIC 6094 assessed as growth inhibition at 300 ug/disc at 37 degC for 48 hr
Candida albicans [8] = experiment: Antifungal activity against Candida albicans ATCC 10231 assessed as growth inhibition at 300 ug/disk at 37 degC for 48 hr; details: ATCC 10231, 48 h, read-out: IZ
[9] = tested on: Chromobacterium violaceum; experiment: Antibacterial activity against Chromobacterium violaceum MTCC 2656 assessed as growth arrest at 37 degC for 24 hr; details: MTCC 2656, 24 h
Klebsiella aerogenes [10] = experiment: Antibacterial activity against Enterobacter aerogenes MTCC 39 assessed as growth arrest at 37 degC for 24 hr; details: MTCC 39, 24 h
Pseudomonas aeruginosa [11] = experiment: Antibacterial activity against Pseudomonas aeruginosa MTCC 741 assessed as growth arrest at 37 degC for 24 hr; details: MTCC 741, 24 h
Staphylococcus aureus [12] = experiment: Antibacterial activity against Staphylococcus aureus MTCC 96 assessed as growth arrest at 37 degC for 24 hr; details: MTCC 96, 24 h
[13] = tested on: Lysinibacillus sphaericus; experiment: Antibacterial activity against Lysinibacillus sphaericus MTCC 11 assessed as growth arrest at 37 degC for 24 hr; details: MTCC 11, 24 h
Bacillus subtilis [14] = experiment: Antibacterial activity against Bacillus subtilis MTCC 441 assessed as growth arrest at 37 degC for 24 hr; details: MTCC 441, 24 h
[15] = tested on: Chromobacterium violaceum; experiment: Antibacterial activity against Chromobacterium violaceum MTCC 2656 assessed as inhibition zones at 300 ug/disk at 37 degC for 24 hr; details: MTCC 2656, 24 h, read-out: IZ
Klebsiella aerogenes [16] = experiment: Antibacterial activity against Enterobacter aerogenes MTCC 39 assessed as inhibition zones at 300 ug/disk at 37 degC for 24 hr; details: MTCC 39, 24 h, read-out: IZ
Pseudomonas aeruginosa [17] = experiment: Antibacterial activity against Pseudomonas aeruginosa MTCC 741 assessed as inhibition zones at 300 ug/disk at 37 degC for 24 hr; details: MTCC 741, 24 h, read-out: IZ
Staphylococcus aureus [18] = experiment: Antibacterial activity against Staphylococcus aureus MTCC 96 assessed as inhibition zones at 300 ug/disc at 37 degC for 24 hr; details: MTCC 96, 24 h, read-out: IZ
[19] = tested on: Lysinibacillus sphaericus; experiment: Antibacterial activity against Lysinibacillus sphaericus MTCC 11 assessed as inhibition zones at 300 ug/disk at 37 degC for 24 hr; details: MTCC 11, 24 h, read-out: IZ
Bacillus subtilis [20] = experiment: Antibacterial activity against Bacillus subtilis MTCC 441 assessed as inhibition zones at 300 ug/disk at 37 degC for 24 hr; details: MTCC 441, 24 h, read-out: IZ
Caenorhabditis elegans = experiment: Nematicidal activity against Caenorhabditis elegans assessed as immobility; details: read-out: LD50 (the source's name)
[21] = tested on: Ditylenchus myceliophagus; experiment: Nematicidal activity against Ditylenchus myceliophagus assessed as immobility; details: read-out: LD50 (the source's name)

Row | SMILES | MBC (Aspergillus fumigatus [3]) [µg/mL] | MIC (Aspergillus fumigatus [3]) [µg/mL] | MBC (Candida albicans [4]) [µg/mL] | MIC (Candida albicans [4]) [µg/mL] | zone of inhibition at 300 µg/disc (Candida albicans [8]) [mm] | MBC [9] [µg/mL] | MIC [9] [µg/mL] | MBC (Klebsiella aerogenes [10]) [µg/mL] | MIC (Klebsiella aerogenes [10]) [µg/mL] | MBC (Pseudomonas aeruginosa [11]) [µg/mL] | MIC (Pseudomonas aeruginosa [11]) [µg/mL] | MBC (Staphylococcus aureus [12]) [µg/mL] | MIC (Staphylococcus aureus [12]) [µg/mL] | MBC [13] [µg/mL] | MIC [13] [µg/mL] | MBC (Bacillus subtilis [14]) [µg/mL] | MIC (Bacillus subtilis [14]) [µg/mL] | zone of inhibition at 300 µg/disc [15] [mm] | LC50 (Caenorhabditis elegans) [µg/mL] | LC50 [21] [µg/mL] | further results
1 | COc1ccc(N2N=C3C(SC(c4cc(Cc5ccc(OC)c(C6SC7C(=NN(c8ccc(OC)cc8)C7c7ccc(F)cc7)N6c6ccc([N+](=O)[O-])cc6)c5)ccc4OC)N3c3ccc([N+](=O)[O-])cc3)C2c2ccc(F)cc2)cc1 (stereo not drawn) | 25 (≈ 22.2 µM) | 12.5 (≈ 11.1 µM) | 12.5 (≈ 11.1 µM) | 6.25 (≈ 5.55 µM) | 13 | 25 (≈ 22.2 µM) | 12.5 (≈ 11.1 µM) | 12.5 (≈ 11.1 µM) | 6.25 (≈ 5.55 µM) | 25 (≈ 22.2 µM) | 12.5 (≈ 11.1 µM) | 25 (≈ 22.2 µM) | 12.5 (≈ 11.1 µM) | 50 (≈ 44.4 µM) | 12.5 (≈ 11.1 µM) | 25 (≈ 22.2 µM) | 12.5 (≈ 11.1 µM) | 16 | 810 (≈ 720 µM) | 920 (≈ 818 µM) | MBC [1]: inactive; MIC [1]: inactive; MBC (Trichophyton rubrum [2]; IFO 9185, 48 h): 25 µg/mL (≈ 22.2 µM); MIC (Trichophyton rubrum [2]; IFO 9185, 48 h): 12.5 µg/mL (≈ 11.1 µM); inhibition zone (IZ) [5]: inactive; inhibition zone (IZ) (Trichophyton rubrum [6]): inactive; inhibition zone (IZ) (Aspergillus fumigatus [7]): inactive; zone of inhibition at 300 µg/disc (Klebsiella aerogenes [16]): 21 mm; zone of inhibition at 300 µg/disc (Pseudomonas aeruginosa [17]): 9 mm; zone of inhibition at 300 µg/disc (Staphylococcus aureus [18]): 21 mm; zone of inhibition at 300 µg/disc [19]: 20 mm; zone of inhibition at 300 µg/disc (Bacillus subtilis [20]): 14 mm
2 | COc1ccc(Cc2ccc(OC)c(C3SC4C(=NN(Cc5ccccc5)C4c4ccc(F)cc4)N3c3ccc(Cl)cc3)c2)cc1C1SC2C(=NN(Cc3ccccc3)C2c2ccc(F)cc2)N1c1ccc(Cl)cc1 (stereo not drawn) | 12.5 (≈ 11.7 µM) | 6.25 (≈ 5.83 µM) | 6.25 (≈ 5.83 µM) | 3.12 (≈ 2.91 µM) | 21 | 6.25 (≈ 5.83 µM) | 6.25 (≈ 5.83 µM) | 12.5 (≈ 11.7 µM) | 6.25 (≈ 5.83 µM) | 50 (≈ 46.6 µM) | 12.5 (≈ 11.7 µM) | 25 (≈ 23.3 µM) | 6.25 (≈ 5.83 µM) | 50 (≈ 46.6 µM) | 6.25 (≈ 5.83 µM) | 12.5 (≈ 11.7 µM) | 6.25 (≈ 5.83 µM) | 18 | 200 (≈ 187 µM) | 180 (≈ 168 µM) | MBC ([1]; IFO 40996, 48 h): 25 µg/mL (≈ 23.3 µM); MIC ([1]; IFO 40996, 48 h): 12.5 µg/mL (≈ 11.7 µM); MBC (Trichophyton rubrum [2]; IFO 9185, 48 h): 12.5 µg/mL (≈ 11.7 µM); MIC (Trichophyton rubrum [2]; IFO 9185, 48 h): 6.25 µg/mL (≈ 5.83 µM); zone of inhibition at 300 µg/disc [5]: 16 mm; zone of inhibition at 300 µg/disc (Trichophyton rubrum [6]): 14 mm; zone of inhibition at 300 µg/disc (Aspergillus fumigatus [7]; HIC 6094, 48 h, read-out: IZ): 17 mm; zone of inhibition at 300 µg/disc (Klebsiella aerogenes [16]): 23 mm; zone of inhibition at 300 µg/disc (Pseudomonas aeruginosa [17]): 18 mm; zone of inhibition at 300 µg/disc (Staphylococcus aureus [18]): 30 mm; zone of inhibition at 300 µg/disc [19]: 23 mm; zone of inhibition at 300 µg/disc (Bacillus subtilis [20]): 23 mm
3 | COc1ccc(Cc2ccc(OC)c(C3SC4C(=NN(C(C)C)C4c4ccc(F)cc4)N3c3ccc(Cl)cc3)c2)cc1C1SC2C(=NN(C(C)C)C2c2ccc(F)cc2)N1c1ccc(Cl)cc1 (stereo not drawn) | 25 (≈ 25.6 µM) | 25 (≈ 25.6 µM) | 25 (≈ 25.6 µM) | 12.5 (≈ 12.8 µM) | 10 | 25 (≈ 25.6 µM) | 12.5 (≈ 12.8 µM) | 50 (≈ 51.2 µM) | 25 (≈ 25.6 µM) | 25 (≈ 25.6 µM) | 25 (≈ 25.6 µM) | 25 (≈ 25.6 µM) | 12.5 (≈ 12.8 µM) | 50 (≈ 51.2 µM) | 25 (≈ 25.6 µM) | 25 (≈ 25.6 µM) | 12.5 (≈ 12.8 µM) | 16 | 670 (≈ 686 µM) | 520 (≈ 533 µM) | MBC ([1]; IFO 40996, 48 h): 50 µg/mL (≈ 51.2 µM); MIC ([1]; IFO 40996, 48 h): 25 µg/mL (≈ 25.6 µM); MBC (Trichophyton rubrum [2]): inactive; MIC (Trichophyton rubrum [2]): inactive; zone of inhibition at 300 µg/disc [5]: 12 mm; zone of inhibition at 300 µg/disc (Trichophyton rubrum [6]): 11 mm; inhibition zone (IZ) (Aspergillus fumigatus [7]): inactive; zone of inhibition at 300 µg/disc (Klebsiella aerogenes [16]): 20 mm; zone of inhibition at 300 µg/disc (Pseudomonas aeruginosa [17]): 13 mm; zone of inhibition at 300 µg/disc (Staphylococcus aureus [18]): 13 mm; zone of inhibition at 300 µg/disc [19]: 11 mm; zone of inhibition at 300 µg/disc (Bacillus subtilis [20]): 12 mm
4 | CNC(=O)O/N=C(\SC)C(=O)N(C)C [OXAMYL] |  |  |  |  |  |  |  |  |  |  |  |  |  |  |  |  |  |  | 180 (≈ 821 µM) | 150 (≈ 684 µM) | 
